Assay results: ChEMBL document CHEMBL1148058, “Antibacterial triterpenoid acids from Dillenia papuana” (1994)

Legend:
Type in all cases: functional
[1] = tested on: Bacillus subtilis; test: Antibacterial activity against Bacillus subtilis ATCC 6633
[2] = tested on: Escherichia coli; test: Antibacterial activity against Escherichia coli ATCC 25922
[3] = tested on: Micrococcus luteus; test: Antibacterial activity against Micrococcus luteus ATCC 9341

| Structure (SMILES) | MIC [1] | MIC [2] | MIC [3] |
| --- | --- | --- | --- |
| CC1(C)C(=O)C=C[C@]2(C)[C@H]3CC=C4[C@@H]5C[C@@](C)(C(=O)O)CC[C@]5(C)CC[C@@]4(C)[C@]3(C)CC[C@@H]12 | 1 µg | 1 µg | 1 µg |
| O=C(N[C@H](CO)[C@H](O)c1ccc([N+](=O)[O-])cc1)C(Cl)Cl [CHLORAMPHENICOL] | 0.1 µg | 0.04 µg | 0.04 µg |
| CC1(C)[C@@H](O)C(=O)C[C@]2(C)[C@H]3CC=C4[C@@H]5C[C@@](C)(C(=O)O)CC[C@]5(C)CC[C@@]4(C)[C@]3(C)CC[C@@H]12 [DILLENIC ACID B] | 2 µg | 1 µg | 1 µg |

Results, then the compound that gave them:

| MIC [1] | MIC [2] | MIC [3] | Structure (SMILES) |
| --- | --- | --- | --- |
| 2.4 µg | 2.4 µg | 1.2 µg | CC1(C)C(=O)[C@H](O)C[C@]2(C)[C@H]3CC=C4[C@@H]5C[C@@](C)(C(=O)O)CC[C@]5(C)CC[C@@]4(C)[C@]3(C)CC[C@@H]12 [DILLENIC ACID A] |
| 2 µg | 5 µg | 2 µg | CC1(C)C(=O)C[C@H](O)[C@]2(C)[C@H]3CC=C4[C@@H]5C[C@@](C)(C(=O)O)CC[C@]5(C)CC[C@@]4(C)[C@]3(C)CC[C@@H]12 [DILLENIC ACID C] |
